Experimental data from US5804576A, “Derivatives of 5-androsten-17-ones and 5-androstan-17-ones” (Research Corporation Technologies, Inc., priority 1986, dated 1998).

Experiments:
[1] = tested on: (3H) DMBA binding to skin DNA; test: [3H]DMBA binding to mouse skin DNA, topical steroid; assay type: in vivo, mouse (A/J); conditions: topical; A/J mouse
Excerpt: Skin tumors can be induced in the mouse either by weekly application of a carcinogen such as […] (DMBA), or alternatively,by a single sub-threshold dose of the carcinogen followed by twice weekly applications of the tumor promoter tetradecanoylphorbol-13-acetate (TPA). In order to exert its carcinogenic effect, DMBA must be metabolized by an NADPH-dependent mixed-function oxidase to chemically reactive intermediates which bind covalently to DNA and produce mutations leading to malignant transformation. […] This effect of DHEA very probably is a result of the inhibition of G6PDH and lowering of the intracellular pool of NADPH, which is a co-factor for the mixed-function oxidase activation of DMBA.
Binding of [^3 H]DMBA to mouse skin DNA was determined as described in Pashko, L. L., and Schwartz, A. G. (1983), Effect of food restriction, dehydroepiandrosterone, or obesity on the binding of ^3 H-7,12-dimethylbenz(a)-anthracene to mouse skin DNA, J. Gerontol., 38, 8-12. Values are mean±SD for 3 individual determinations, with pooled tissue from 2 mice used for each determination. DHEA or testosterone (400 ug in 0.2 ml acetone) was applied to the skin one hour before [^3 H]DMBA. The mean weight of the food restricted mice was 18.5±1.0 gm, n=6, of the ad libitum fed, 27.4±1.0 gm, n=6, of the ad libitum fed treated with DHEA, 28.2±0.9 gm, n=6, and of the ad libitum fed treated with testosterone, 28.3±0.9 gm, n=6, following two weeks of feeding. The average food consumed was, in gm/mouse/day, 2.2, 3.8, 3.8 and 4.0 for the food restricted, ad libitum fed, ad libitum fed plus DHEA, and ad libitum fed plus testosterone groups, respectively.

[2] = biological target: T1, purified bovine adrenal G6PDH (Bos taurus, UniProt F1MMK2); test: Inhibition of purified bovine adrenal G6PDH; assay type: biochemical; conditions: for inhibition at 1 µM: Conc. 1 μm; for inhibition at 1 µM / inhibition at 10 µM: read-out: Percent Inhibition (G6PDH); for inhibition at 10 µM: Conc. 10 μm
T1 construct: full-length, wild type, no tag
T1 sequence (F1MMK2 31-70): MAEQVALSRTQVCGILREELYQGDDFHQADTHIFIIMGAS
T1 sequence (F1MMK2 101-575): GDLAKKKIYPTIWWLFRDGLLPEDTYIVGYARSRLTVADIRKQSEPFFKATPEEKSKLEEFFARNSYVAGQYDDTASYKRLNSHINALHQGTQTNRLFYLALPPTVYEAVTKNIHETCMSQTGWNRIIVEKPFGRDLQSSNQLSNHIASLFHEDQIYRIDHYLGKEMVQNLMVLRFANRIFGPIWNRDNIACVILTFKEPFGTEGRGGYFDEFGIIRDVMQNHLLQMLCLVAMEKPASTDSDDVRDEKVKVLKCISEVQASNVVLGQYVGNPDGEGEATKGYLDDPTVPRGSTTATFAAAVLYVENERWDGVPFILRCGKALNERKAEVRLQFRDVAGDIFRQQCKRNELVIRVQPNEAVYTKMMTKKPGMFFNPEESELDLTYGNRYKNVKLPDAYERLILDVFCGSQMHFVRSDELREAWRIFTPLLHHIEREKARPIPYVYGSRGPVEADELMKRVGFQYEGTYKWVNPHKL
Excerpt: The compounds listed below are screened as inhibitors of purified bovine adrenal G6PDH activity as one predictor of cancer preventive action. The assay for testing the inhibition of purified bovine adrenal G6PDH is according to the procedure by Oertel, G. W. and Rebelein, I. in Biochem. Biophys. Acta, 184, 459-460 (1969). The results are given below in Table I:
Both of the above tests, i.e., the inhibition of mammalian glucose-6-phosphate dehydrogenase (G6PDH) and the inhibition of tumor promoter (TPA) stimulation of ^3 H-thymidine incorporation in mouse epidermis are recognized as indicators of cancer prophylactic activity. The following Table compares the efficacy of representative compounds of the present invention in these two tests with that of DHEA: […]

[3] = tested on: TPA (Tumor Promoter) Stimulation of Mouse Epidermal DNA; test: Inhibition of TPA stimulation of mouse epidermal DNA synthesis (3H-thymidine incorporation), oral; assay type: in vivo, mouse (ICR male); conditions: oral, single administration
Excerpt: Synthesis rate by orally administered steroids.
The inhibition of tumor promoter stimulation of mouse epidermal DNA synthesis rate by steroids may also contribute to cancer preventive activity. The following assay is used:
ICR male mice (7-9 weeks old) were shaved on the back 1-2 days before use. Only mice showing no hair regrowth were used. Animals were orally intubated with a particular steroid suspended by homogenization in sesame oil or with sesame oil alone (controls). One hour later TPA (10 μg in 0.2 ml of acetone) or acetone vehicle was applied topically to the shaved skin. Twenty hours later, mice were injected i.p. with 60 μCi of ^3 H-thymidine 20 minutes before sacrifice. The animals were killed by cervical dislocation and the residual hair was removed with a depilatory agent. Epidermal scrapings were prepared according to the procedures of Hennings et al. (Cancer Res. 28, 53, 1968), homogenized in distilled water at 4° C., and the macromolecules precipitated with 0.4N trichloroacetic acid (TCA). Following 6 washes with absolute ethanol at room temperature, the nucleic acids were hydrolyzed with 0.5N TCA at 70° C. for 5 minutes. The hydrolysate (0.2 ml aliquots) were counted in an Intertechnique scintillation counter and assayed for DNA by the diphenylamine reaction.
The data are expressed as counts per minute (cpm) of tritium per μg of DNA.
A similar oral dose-response experiment with compound 16 and DHEA was performed.
Both of the above tests, i.e., the inhibition of mammalian glucose-6-phosphate dehydrogenase (G6PDH) and the inhibition of tumor promoter (TPA) stimulation of ^3 H-thymidine incorporation in mouse epidermis are recognized as indicators of cancer prophylactic activity. The following Table compares the efficacy of representative compounds of the present invention in these two tests with that of DHEA:
(§1) Male ICR mice were orally intubated with steroid suspended in sesame oil (0.5 ml/mouse) at the indicated dose. Mice not receiving steroid were given sesame oil alone. One hour later mice received topical application of TPA and 20 hours later the rate of ^3 H-thymidine incorporation into the epidermis was determined as described in Table 4.
as §1, with “TPA,” for “TPA”

[4] = tested on: [3H]DMBA binding to skin DNA; test: [3H]DMBA binding to skin DNA, oral steroid; assay type: in vivo, mouse (male A/J); conditions: 12 hours
Procedure: (§2) Male A/J mice were orally intubated with steroid suspended in sesame oil (0.5 ml/mouse) at the indicated dose. Mice not receiving steroid were given sesame oil alone. Food restricted mice received approximately 60% of food of Ad libitum fed for two weeks. One hour after oral intubation, topical [^3 H]DMBA was applied to the skin, and the amount bound to DNA was determined 12 hours later as described in Table 4.
as §2, with “alone.” for “alone. Food restricted mice received approximately 60% of food of Ad libitum fed for two weeks.”

[5] = Anti-obesity test (body weight, food consumption); assay type: in vivo, mouse (male A/J); conditions: for anti-weight effect (in words): 400 mg/kg repeated (DHEA), cancer preventive dosages (19, 20); for weekly weight (Table 13): 0.54% in food; for mean weekly weight ± S.D.: 0.36% of diet, n = 5
Procedure: Male A/J mice (5 weeks old) were obtained from the Jackson Laboratory and were housed in polycarbonate cages (5 mice/cage) in animal quarters maintained at 24°±1° C. with 12 hours of light and 12 hours of darkness each day. One week after arrival, the mice were placed on a chow diet containing varying concentrations of DHEA or other steroid. Animals were weighed weekly; food consumption was determined weekly by subtracting the amount of food remaining in the cage from the amount added.
Male A/J (5 weeks old) were obtained from the Jackson Laboratory and were housed in polycarbonate cages (5 mice/cage) in animal quarters maintained at 24°±1° C. with 12 hours of light and 12 hours of darkness each day. One week after arrival, the mice were placed on a diet containing either DHEA, 19, or without steroid. Animals were weighed weekly. The concentration of DHEA or 19 used in the food was 0.54%.
Male A/J mice (5 weeks old) were obtained from the Jackson Laboratory and were housed in polycarbonate cages (5 mice/cage) in animal quarters maintained at 24°±1° C. with 12 hours of light and 12 hours of darkness each day. One week after arrival, the mice were placed on a show diet containing DHEA, 16, or 21 at 0.36%. Animals were weighed weekly.

[6] = tested on: rat uterus; mouse seminal vesicle plus prostate; test: Sex steroid hormonal or anti-hormonal activity (estrogenic, anti-estrogenic, androgenic, anti-androgenic); conditions: in vivo
Procedure: Female CD rats, 26-27 days old, were injected subcutaneously for 3 days with one of the compounds of the present invention at 60 mg/kg in propylene glycol. Controls received propylene glycol alone. On the 4th day the rats were killed and the uteri were dissected out and weighed. The results are given below:
(§3) (a) Male A/J mice (5 weeks old) were obtained from the Jackson Laboratory and were housed in polycarbonate cages (5 mice/cage) in animal quarters maintained at 24°[…] C. with 12 hours of light and 12 hours of darkness each day. One week after arrival, the mice were placed on a chow diet containing one of the test compounds of the present invention at 0.36%. After 4 weeks of treatment, the above mice were killed, and the seminal vesicles and prostate glands were dissected out and weighed.

[7] = tested on: rat uterus; test: Estrogenic and anti-estrogenic activity (uterine weight, s.c., CD rats); assay type: in vivo, rat (female CD); conditions: for Mean Uterine Weight ± S.D.: 60 mg/kg s.c., 3 days, Tables 16 and 17
Procedure: Female CD rats, 26-27 days old, were used. Rats were injected subcutaneously for 3 days with either DHEA or 16 in propylene glycol. Control rats received propylene glycol alone. The rats were killed on the 4th day and the uteri were removed and weighed.
Female CD rats, 26-27 days old, were injected subcutaneously for 3 days with one of the compounds of the present invention at 60 mg/kg in propylene glycol. Controls received propylene glycol alone. On the 4th day the rats were killed and the uteri were dissected out and weighed.

[8] = tested on: seminal vesicles plus prostate glands; test: Androgenic and anti-androgenic activity (seminal vesicle plus prostate weight); assay type: in vivo, mouse (male A/J)
Procedure: Male A/J mice (5 weeks old) were obtained from the Jackson Laboratory and were housed in polycarbonate cages (5 mice/cage) in animal quarters maintained at 24°±1° C. with 12 hours of light and 12 hours of darkness each day. One week after arrival, mice were placed on a chow diet containing either 0.18% or 0.09% 16 or without steroid. Mice were weighed weekly. After 4 weeks, the mice were killed, and the seminal vesicles plus prostate glands were dissected out and weighed.
as §3

[9] = tested on: seminal vesicles plus prostate glands; test: as above; assay type: in vivo, mouse (male A/J); conditions: con't. experiment; five weeks; DHEA 0.54%; n = 5
[10] = tested on: rat uterus; test: Uterotrophic test for estrogenic activity, oral; assay type: in vivo; conditions: 14 μg/kg oral; 3 days; n = 6
Excerpt: Uterotrophic Test for Estrogenic Activity. Compound 16 vs. DHEA and Estradiol-benzoate. Compounds Given by Oral Administration.
Twenty-two day old rats were obtained from Charles River Laboratories. Animals were used at 29 days of age. Test steroids were suspended by homogenization in sesame oil. Rats were orally intubated at 1-2 P.M. for 3 days with a test steroid in sesame oil or with sesame oil alone (control). On the 4th day the animals were killed and the uteri were removed and weighed.

In the case of `C[C@]12CC[C@H]3[C@@H](CCC4=CC(=O)CC[C@@]43C)[C@@H]1CC[C@@H]2O` [testosterone], the “rate of binding of topically applied 3H-DMBA to skin DNA (in words)” value [1] is reported as “without inhibitory effect”.
In the case of `C[C@H]1CC[C@@]2(C)C(=CC[C@@H]3[C@@H]2CC[C@]2(C)C(=O)[C@H](F)C[C@@H]32)C1` [Compound 20], the inhibition at 1 µM [2] is reported as 55%, the inhibition at 10 µM [2] is reported as 46% and the “TPA stimulation in 3H-thymidine incorporation (in words)” value [3] is reported as “to a degree comparable to that produced by food restriction at doses well below 400 mg/kg”. For the same molecule, the “SPECIFIC ACTIVITY ([3H]DMBA bound to skin DNA)” value ([4]; 100 mg/kg p.o.) was 48.4 ± 2.6 cpm/ug DNA, the “SPECIFIC ACTIVITY ([3H]DMBA bound to skin DNA)” value ([4]; 200 mg/kg p.o.) was 43.7 ± 1.5 cpm/ug DNA and the “anti-weight effect (in words)” value [5] was “do not produce an anti-weight effect”.
For `C[C@]12CCC(Cl)CC1=CC[C@@H]1[C@@H]2CC[C@]2(C)C(=O)CC[C@@H]12` (stereo partly drawn) [3 chloro-5-androstene-17-one], the “estrogenic, anti-estrogenic, androgenic, anti-androgenic activity (in words)” value (from here on “estrogenic, anti-estrogenic, androgenic”) [6] was “without any demonstrable estrogenic, androgenic, anti-androgenic or anti-estrogenic activity”.
In the case of `C[C@H]1CC[C@@]2(C)C(=CC[C@@H]3[C@@H]2CC[C@]2(C)C(=O)[C@H](O)C[C@@H]32)C1` [Compound 19], the “G6PDH inhibition compared with DHEA (in words)” value [2] is reported as “more effective inhibitorsof G6PDH than is DHEA”, the inhibition at 1 µM [2] is reported as 29% and the inhibition at 10 µM [2] is reported as 64%. For the same molecule, the “TPA stimulation in 3H-thymidine incorporation (in words)” value [3] was “to a degree comparable to that produced by food restriction at doses well below 400 mg/kg”, the “SPECIFIC ACTIVITY ([3H]DMBA bound to skin DNA)” value ([4]; 400 mg/kg p.o.) was 20.4 ± 1.1 cpm/ug DNA and the “anti-weight effect (in words)” value [5] was “do not produce an anti-weight effect”. The “weekly weight (Table 13)” value ([5]; week 0) was 21.1 ± 0.8, the “weekly weight (Table 13)” value ([5]; week 1) was 19.1 ± 0.9 and the “weekly weight (Table 13)” value ([5]; week 2) was 18.4 ± 1.0. For the same molecule, the “weekly weight (Table 13)” value ([5]; week 3) was 18.7 ± 1.4, the “weekly weight (Table 13)” value ([5]; week 4) was 19.7 ± 1.1 and the “weekly weight (Table 13)” value ([5]; week 5) was 20.6 ± 0.4. The “Mean Uterine Weight ± S.D.” value [7] was 2.16 ± 0.5 mg/100 gm body weight, the “estrogenic / anti-estrogenic effect, uterine weight (in words)” value ([7]; s.c., 60 mg/kg or higher, female CD rats) was “no apparent estrogenic nor anti-estrogenic activity” and the “androgenic / anti-androgenic effect, seminal vesicle plus prostate weight (in words)” value ([8]; diet, male A/J mice) was “no significant effect on seminal vesicle plus prostate gland weight”. For the same molecule, the “estrogenic, anti-estrogenic, androgenic” value [6] was “neither estrogenic, anti-estrogenic, androgenic, nor anti-androgenic activity” and the “Mean Seminal Vesicle plus Prostate Weight ± S.D.” value [9] was 6.45 ± 0.65 mg/100 gm body weight.
For `C[C@]12CC[C@@H]3c4ccc(OC(=O)c5ccccc5)cc4CC[C@H]3[C@@H]1CC[C@@H]2O` [Estradiol-benzoate, reference compound], the “Mean Uterine Weight” value [10] was 244 ± 44 Mgs.
For `C[C@H]1CC[C@@]2(C)C(=CC[C@@H]3[C@@H]2CC[C@]2(C)C(=O)[C@H](C)C[C@@H]32)C1` [Compound 21], the “G6PDH inhibition compared with DHEA (in words)” value [2] was “more effective inhibitorsof G6PDH than is DHEA”, the inhibition at 1 µM [2] was 36% and the inhibition at 10 µM [2] was 48%. The “mean weekly weight ± S.D.” value ([5]; week 0) was 22.7 ± 1.9 grams, the “mean weekly weight ± S.D.” value ([5]; week 1) was 20.1 ± 2.1 grams and the “mean weekly weight ± S.D.” value ([5]; week 2) was 19.9 ± 2.3 grams. The “mean weekly weight ± S.D.” value ([5]; week 3) was 22.2 ± 2.3 grams, the “Mean Uterine Weight ± S.D.” value [7] was 1.76 ± 0.21 mg/100 gm body weight and the “Mean Seminal Vesicle plus Prostate Weight ± S.D.” value ([8]; 0.36% of diet, 4 weeks, n = 5) was 5.1 ± 1.4 mg/100 gm body weight. For the same molecule, the “estrogenic, anti-estrogenic, androgenic” value [6] was “neither estrogenic, anti-estrogenic, androgenic, nor anti-androgenic activity”.
